Reference: ChEMBL document CHEMBL4706517, “Discovery of novel berberine derivatives with balanced cholinesterase and prolyl oligopeptidase inhibition profile” (Eur J Med Chem, 2020)
Calls of active or inactive are those of the source. The rule behind the calls is not given here.

Tests used:
[1] = Antioxidant activity assessed as radical scavenging activity measured after 30 mins by microplate reader based DPPH assay; assay type: functional
[2] = Inhibition of HFIP-pretreated Tau (306 to 336) (unknown origin) self-aggregation at 25 uM measured at interval of 10 mins for overnight with 1 min shaking by thioflavin-T fluorescence method; settings: Homo sapiens
CHO-K1 = experiment: Cytotoxicity against CHO-K1 cells assessed as reduction in cell viability measured after 24 hrs by MTT assay; assay type: cell-based, Cricetulus griseus
in vitro = settings: PAMPA, pH 7.4
Description: Permeability of the compound at pH 7.4 measured after 6 hrs by PAMPA method

Prolyl endopeptidase = target: T1, Prolyl endopeptidase (Homo sapiens, UniProt P48147)
T1 sequence (P48147 whole entry): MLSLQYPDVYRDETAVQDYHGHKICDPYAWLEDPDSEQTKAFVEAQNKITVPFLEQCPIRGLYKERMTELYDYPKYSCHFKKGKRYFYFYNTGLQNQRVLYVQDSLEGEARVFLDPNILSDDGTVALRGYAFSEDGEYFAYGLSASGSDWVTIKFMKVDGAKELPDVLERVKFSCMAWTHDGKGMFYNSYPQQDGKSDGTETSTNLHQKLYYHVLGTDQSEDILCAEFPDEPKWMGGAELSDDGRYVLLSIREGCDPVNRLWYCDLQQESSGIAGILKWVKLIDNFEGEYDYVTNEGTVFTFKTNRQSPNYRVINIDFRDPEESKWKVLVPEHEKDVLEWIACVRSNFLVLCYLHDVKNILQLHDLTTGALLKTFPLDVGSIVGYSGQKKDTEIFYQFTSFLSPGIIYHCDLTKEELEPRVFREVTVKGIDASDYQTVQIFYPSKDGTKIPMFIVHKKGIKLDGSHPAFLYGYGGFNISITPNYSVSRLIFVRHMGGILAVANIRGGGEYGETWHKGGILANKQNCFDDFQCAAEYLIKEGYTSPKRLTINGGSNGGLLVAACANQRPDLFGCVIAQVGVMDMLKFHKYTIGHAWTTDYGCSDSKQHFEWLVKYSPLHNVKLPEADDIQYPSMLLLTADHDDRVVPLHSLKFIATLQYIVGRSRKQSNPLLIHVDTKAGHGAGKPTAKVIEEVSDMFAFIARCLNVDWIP
Description: Inhibition of recombinant human Prolyl oligopeptidase expressed in Escherichia coli expression system using (Z)-Gly-Pro-p-nitroanilide as substrate preincubated with enzyme for 5 mins followed by substrate addition and measured for 30 mins by spectrophotometric analysis

Acetylcholinesterase [3] = target: T2, Acetylcholinesterase (Homo sapiens, UniProt P22303); experiment: Inhibition of recombinant human acetylcholinesterase using acetylthiocholine iodide as substrate preincubated with enzyme for 5 mins followed by substrate addition and measured at 2 mins interval by Ellman's method
T2 sequence (P22303 whole entry): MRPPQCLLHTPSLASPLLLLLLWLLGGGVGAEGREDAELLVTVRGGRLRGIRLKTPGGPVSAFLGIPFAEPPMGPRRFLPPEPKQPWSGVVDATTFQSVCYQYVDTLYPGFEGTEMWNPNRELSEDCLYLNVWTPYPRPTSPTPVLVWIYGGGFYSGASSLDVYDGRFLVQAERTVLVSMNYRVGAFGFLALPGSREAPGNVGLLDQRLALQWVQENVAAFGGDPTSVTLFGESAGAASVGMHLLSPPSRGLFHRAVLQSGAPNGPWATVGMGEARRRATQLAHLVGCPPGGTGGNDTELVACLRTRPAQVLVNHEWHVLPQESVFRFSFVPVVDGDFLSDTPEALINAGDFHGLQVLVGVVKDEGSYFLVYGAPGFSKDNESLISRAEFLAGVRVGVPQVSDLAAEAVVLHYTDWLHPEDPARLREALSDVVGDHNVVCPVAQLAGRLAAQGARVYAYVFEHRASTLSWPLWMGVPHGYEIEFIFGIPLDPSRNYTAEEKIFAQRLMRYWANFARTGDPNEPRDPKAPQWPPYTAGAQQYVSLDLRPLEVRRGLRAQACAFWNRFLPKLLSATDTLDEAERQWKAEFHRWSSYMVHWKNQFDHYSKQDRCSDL

[4] = Antioxidant activity assessed as radical scavenging activity incubated for 20 mins by DPPH assay based UV spectrophotometer analysis; assay type: functional
Acetylcholinesterase [5] = target: T2, Acetylcholinesterase; experiment: Noncompetitive inhibition of human acetylcholinesterase assessed as affinity towards free enzyme using acetylthiocholine iodide as substrate measured by Ellman's method based Lineweaver-Burk plot analysis
Acetylcholinesterase [6] = target: T2, Acetylcholinesterase; experiment: Noncompetitive inhibition of human acetylcholinesterase assessed as decrease in apparent Vmax with unchanged Km using acetylthiocholine iodide as substrate by Lineweaver-Burk plot analysis
[7] = Cricetulus griseus, CHO-K1, 24 h, read-out: IC50

Compound | EC50 [1] [mM] | inhibition [2] [%] | IC50 (CHO-K1; [7]) [µM] | Papp at 6 h (in vitro) [×10⁻⁶ cm/s] | IC50 (Prolyl endopeptidase) [µM] | IC50 (Acetylcholinesterase [3]) [nM] | IC50 (CHO-K1; cho-k1) | EC50 [4] [µM] | Ki (Acetylcholinesterase [5]) [nM] | inhibition (Acetylcholinesterase [6])
COc1ccc2cc3[n+](cc2c1OC)CCc1cc2c(cc1-3)OCO2.[Cl-] [BERBERINE CHLORIDE] | 5.5 | 25 | 336 | 0.2 | – | – | – | – | – | –
COc1ccc2cc3[n+](cc2c1OCc1ccccc1C)CCc1cc2c(cc1-3)OCO2 | 1.2 | – | 55 | – | 71.1 | 10400 | – | – | – | –
COc1ccc2cc3[n+](cc2c1OCc1ccc(C#N)cc1)CCc1cc2c(cc1-3)OCO2 | > 6 | – | 292 | – | 36.5 | 1700 | – | – | – | –
COc1ccc2cc3[n+](cc2c1OCc1ccc([N+](=O)[O-])cc1)CCc1cc2c(cc1-3)OCO2.[Br-] | 5 | – | – | 1.4 | 21.2 | 990 | Nd(Insoluble) | – | – | –
COc1ccc2cc3[n+](cc2c1OC(C)c1ccccc1)CCc1cc2c(cc1-3)OCO2.[Br-] (configuration not stated) | 5.6 | 38.3 | 42 | 0.4 | 29.5 | 790 | – | – | – | –
COc1cccc(COc2c(OC)ccc3cc4[n+](cc23)CCc2cc3c(cc2-4)OCO3)c1 | 5.3 | – | 46 | – | 40.4 | 3500 | – | – | – | –
COc1ccc2cc3[n+](cc2c1OCc1cccc(Br)c1)CCc1cc2c(cc1-3)OCO2 | 2.2 | – | 32 | – | 59.6 | 2700 | – | – | – | –
Cc1c(C)c2c(c(C)c1O)CCC(C)(C(=O)O)O2 (configuration not stated) [TROLOX] | 0.0162 | – | – | – | – | – | – | – | – | –
Nc1c2c(nc3ccccc13)CCCC2 [TACRINE] | – | – | – | 6 | – | – | – | – | – | –
COC(=O)c1ccc(COc2c(OC)ccc3cc4[n+](cc23)CCc2cc3c(cc2-4)OCO3)cc1 | 5.3 | – | 50 | – | 47.6 | 2600 | – | – | – | –
COc1ccc2cc3[n+](cc2c1OCc1ccccc1)CCc1cc2c(cc1-3)OCO2.[Br-] | 1.9 | – | 55 | 0.4 | 25.4 | 5000 | – | – | – | –
COc1ccc2cc3[n+](cc2c1O)CCc1cc2c(cc1-3)OCO2 [BERBERRUBINE CHLORIDE] | – | – | – | – | – | – | – | 87 | – | –
COc1ccc(COc2c(OC)ccc3cc4[n+](cc23)CCc2cc3c(cc2-4)OCO3)cc1.[Br-] | > 6 | – | 42 | 4.8 | 40.5 | 5300 | – | – | – | –
COc1ccc2cc3[n+](cc2c1OCc1ccc(SC)cc1)CCc1cc2c(cc1-3)OCO2 | > 6 | – | 43 | – | 34 | 2600 | – | – | – | –
COc1ccc2cc3[n+](cc2c1OCc1cccc([N+](=O)[O-])c1)CCc1cc2c(cc1-3)OCO2.[Br-] | 5.6 | – | 30 | 1.2 | 24.7 | 1450 | – | – | – | –
COc1ccc2cc3[n+](cc2c1OCc1ccc(C)cc1)CCc1cc2c(cc1-3)OCO2.[Br-] | 1.9 | 31.9 | 43 | 0.8 | 10.7 | 75800 | – | – | – | –
COc1ccc2cc3[n+](cc2c1OCc1ccc(Br)cc1)CCc1cc2c(cc1-3)OCO2.[Br-] | > 6 | – | 48 | 0.6 | 19.4 | 3300 | – | – | – | –
COc1ccc2cc3[n+](cc2c1OCc1cccc(Cl)c1)CCc1cc2c(cc1-3)OCO2 | 5.4 | – | 30 | – | 67 | 1900 | – | – | – | –
COc1ccc2cc3[n+](cc2c1OCc1ccc(C(F)(F)F)cc1)CCc1cc2c(cc1-3)OCO2.[Br-] | 5.3 | – | 21 | 0.8 | 27.4 | 1300 | – | – | 0.456 | Active
COc1ccc2cc3[n+](cc2c1OCc1cc(C)cc(C)c1)CCc1cc2c(cc1-3)OCO2 | 0.99 | – | 23 | – | 58.7 | 2500 | – | – | – | –
C[C@H]1c2cccc(O)c2C(=O)C2=C(O)[C@]3(O)C(=O)C(C(N)=O)=C(O)[C@@H](N(C)C)[C@@H]3[C@@H](O)[C@@H]21 | – | 39.6 | – | – | – | – | – | – | – | –
COc1ccc2cc3[n+](cc2c1OCc1ccc(Cl)c(Cl)c1)CCc1cc2c(cc1-3)OCO2 | > 6 | – | 9 | – | 52.7 | 1220 | – | – | – | –
COc1ccc2cc3[n+](cc2c1OCc1cccc(C)c1)CCc1cc2c(cc1-3)OCO2 | 1.2 | – | 58 | – | 79.1 | 7300 | – | – | – | –
CC(=O)N[C@@H](CS)C(=O)O [ACETYLCYSTEINE] | 0.0279 | – | – | – | – | – | – | – | – | –
COc1ccc2cc3[n+](cc2c1OCc1ccc2ccccc2c1)CCc1cc2c(cc1-3)OCO2.[Br-] | > 6 | 62 | 14 | 0.8 | 28.5 | 1500 | – | – | – | –
COc1ccc2cc3[n+](cc2c1OCc1ccccc1Br)CCc1cc2c(cc1-3)OCO2 | > 6 | – | 26 | – | 38.9 | 1700 | – | – | – | –
COc1ccc2cc3[n+](cc2c1OCc1ccc(C(C)C)cc1)CCc1cc2c(cc1-3)OCO2 | 1.3 | – | 17 | – | 53.3 | 4200 | – | – | – | –
CO/N=C(\C(=O)N[C@@H]1C(=O)N2C(C(=O)O)=C(COC(N)=O)CS[C@H]12)c1ccco1 [CEFUROXIME] | – | – | – | 0.3 | – | – | – | – | – | –
COc1ccc2cc3[n+](cc2c1OCc1ccc(Cl)cc1)CCc1cc2c(cc1-3)OCO2 | 5.2 | – | 13 | – | 39.4 | 2500 | – | – | – | –
